Source: PubChem BioAssay (NCI)
“And” between values parts separate entries of the source, which are not always exact repeats. Identical values can stand only once.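 96-well plates; 48 h exposure; 5 concentrations. Endpoints by linear interpolation between flanking doses. Not reached: highest tested concentration assigned. Abbreviation: GI50, concentration required for 50% inhibition of growth. TGI is the concentration that stops growth completely.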

Key:
Test in all cases: DTP human tumour cell line panel, 48 h
786-0 renal = system: 786-0 renal
A498 renal = system: A498 renal
A549 NSCLC = system: A549 NSCLC
ACHN renal = system: ACHN renal
BT-549 breast = system: BT-549 breast
CAKI-1 renal = system: CAKI-1 renal
CCRF-CEM leukemia = system: CCRF-CEM leukemia
COLO 205 colon = system: COLO 205 colon
DU-145 prostate = system: DU-145 prostate
EKVX NSCLC = system: EKVX NSCLC
HCC-2998 colon = system: HCC-2998 colon
HCT-116 colon = system: HCT-116 colon
HCT-15 colon = system: HCT-15 colon
HL-60(TB) leukemia = system: HL-60(TB) leukemia
HOP-62 NSCLC = system: HOP-62 NSCLC
HOP-92 NSCLC = system: HOP-92 NSCLC
HS 578T breast = system: HS 578T breast
IGROV1 ovarian = system: IGROV1 ovarian
K-562 leukemia = system: K-562 leukemia
LOX IMVI melanoma = system: LOX IMVI melanoma
M14 melanoma = system: M14 melanoma
MALME-3M melanoma = system: MALME-3M melanoma
MCF7 breast = system: MCF7 breast
MDA-MB-231 breast = system: MDA-MB-231 breast
MDA-MB-435 = system: MDA-MB-435
MDA-MB-468 breast = system: MDA-MB-468 breast
MOLT-4 leukemia = system: MOLT-4 leukemia
NCI-H226 lung = system: NCI-H226 lung
NCI-H23 lung = system: NCI-H23 lung
NCI-H460 lung = system: NCI-H460 lung
NCI-H522 lung = system: NCI-H522 lung
NCI/ADR-RES ovarian = system: NCI/ADR-RES ovarian
OVCAR-3 ovarian = system: OVCAR-3 ovarian
OVCAR-4 ovarian = system: OVCAR-4 ovarian
OVCAR-5 ovarian = system: OVCAR-5 ovarian
OVCAR-8 ovarian = system: OVCAR-8 ovarian
PC-3 prostate = system: PC-3 prostate
RPMI-8226 leukemia = system: RPMI-8226 leukemia
RXF 393 renal = system: RXF 393 renal
SF-268 CNS = system: SF-268 CNS
SF-295 CNS = system: SF-295 CNS
SF-539 CNS = system: SF-539 CNS
SK-MEL-5 melanoma = system: SK-MEL-5 melanoma
SK-OV-3 ovarian = system: SK-OV-3 ovarian
SN12C renal = system: SN12C renal
SNB-19 CNS = system: SNB-19 CNS
SR leukemia = system: SR leukemia
SW-620 colon = system: SW-620 colon
T-47D breast = system: T-47D breast
TK-10 renal = system: TK-10 renal
U251 CNS = system: U251 CNS
UACC-257 melanoma = system: UACC-257 melanoma
UACC-62 melanoma = system: UACC-62 melanoma
UO-31 renal = system: UO-31 renal

For CC(C)C[C@H](NC(=O)[C@@H]1CCCCCCCCCCC(=O)N[C@@H](CC(=O)N2CCC[C@@H]2C2CCCC2)C(=O)N1)B(O)O, which GI50 (786-0 renal) is on record?
The GI50 was 24.9 nM and 21.8 nM.

What about the TGI (786-0 renal) of the same molecule?
Its TGI is 173 nM and 168 nM.

And the GI50 (A498 renal)?
Its GI50 is 21.6 nM and 34.4 nM.

And the TGI (A498 renal)?
The TGI was 98.2 nM and 180 nM.

And the GI50 (A549 NSCLC)?
The GI50 was 7.11 nM.

What about the TGI (A549 NSCLC) of the same molecule?
The TGI was 4570 nM.

What about the GI50 (ACHN renal) of the same molecule?
The GI50 was 58.5 nM and 25.9 nM.

What about the TGI (ACHN renal) of the same molecule?
Its TGI is 5940 nM.

And the GI50 (BT-549 breast)?
Its GI50 is 1.4 nM.

What about the TGI (BT-549 breast) of the same molecule?
Its TGI is 3.05 nM.

What about the GI50 (CAKI-1 renal) of the same molecule?
The GI50 was 108 nM and 52.6 nM.

And the TGI (CAKI-1 renal)?
Its TGI is 3350 nM.

And the GI50 (CCRF-CEM leukemia)?
The GI50 was 2.87 nM.

What about the GI50 (COLO 205 colon) of the same molecule?
The GI50 was 4.5 nM.

And the TGI (COLO 205 colon)?
Its TGI is 20.2 nM and 18 nM.

And the GI50 (DU-145 prostate)?
The GI50 was 8.46 nM.

What about the TGI (DU-145 prostate) of the same molecule?
Its TGI is 37000 nM.

What about the GI50 (EKVX NSCLC) of the same molecule?
Its GI50 is 9.25 nM and 21.7 nM.

What about the GI50 (HCC-2998 colon) of the same molecule?
The GI50 was 1.83 nM.

And the TGI (HCC-2998 colon)?
Its TGI is 3.32 nM.

And the GI50 (HCT-116 colon)?
Its GI50 is 2.6 nM.

What about the GI50 (HCT-15 colon) of the same molecule?
Its GI50 is 119 nM and 224 nM.

What about the TGI (HCT-15 colon) of the same molecule?
The TGI was 356 nM and 2460 nM.

What about the GI50 (HL-60(TB) leukemia) of the same molecule?
Its GI50 is 3.2 nM.

What about the TGI (HL-60(TB) leukemia) of the same molecule?
The TGI was 1940 nM.

What about the GI50 (HOP-62 NSCLC) of the same molecule?
The GI50 was 5.68 nM.

What about the TGI (HOP-62 NSCLC) of the same molecule?
Its TGI is 23 nM.

What about the GI50 (HOP-92 NSCLC) of the same molecule?
Its GI50 is 2.23 nM.

What about the TGI (HOP-92 NSCLC) of the same molecule?
The TGI was 6.22 nM.

And the GI50 (HS 578T breast)?
The GI50 was 4.22 nM.

And the TGI (HS 578T breast)?
Its TGI is 94 nM.

What about the GI50 (IGROV1 ovarian) of the same molecule?
Its GI50 is 4.08 nM.

What about the GI50 (K-562 leukemia) of the same molecule?
The GI50 was 4.56 nM.

What about the TGI (K-562 leukemia) of the same molecule?
Its TGI is over 100000 nM.

And the GI50 (LOX IMVI melanoma)?
The GI50 was 1.75 nM.

What about the TGI (LOX IMVI melanoma) of the same molecule?
The TGI was 3.46 nM.

What about the GI50 (M14 melanoma) of the same molecule?
Its GI50 is 5.5 nM.

What about the TGI (M14 melanoma) of the same molecule?
Its TGI is 75.4 nM and 109 nM.

What about the GI50 (MALME-3M melanoma) of the same molecule?
Its GI50 is 1.64 nM.

And the TGI (MALME-3M melanoma)?
Its TGI is 3.71 nM and 23.8 nM.

What about the GI50 (MCF7 breast) of the same molecule?
The GI50 was 3.7 nM.

What about the GI50 (MDA-MB-231 breast) of the same molecule?
Its GI50 is 1.87 nM.

What about the TGI (MDA-MB-231 breast) of the same molecule?
Its TGI is 3.81 nM.

And the GI50 (MDA-MB-435)?
The GI50 was 2.57 nM.

And the TGI (MDA-MB-435)?
The TGI was 6.73 nM.

And the GI50 (MDA-MB-468 breast)?
The GI50 was 2.02 nM.

And the TGI (MDA-MB-468 breast)?
Its TGI is 4.4 nM.

And the GI50 (MOLT-4 leukemia)?
The GI50 was 3.4 nM.

What about the TGI (MOLT-4 leukemia) of the same molecule?
Its TGI is 8480 nM.

And the GI50 (NCI-H226 lung)?
Its GI50 is 3.97 nM.

And the TGI (NCI-H226 lung)?
Its TGI is 17.2 nM.

What about the GI50 (NCI-H23 lung) of the same molecule?
Its GI50 is 2.15 nM.

What about the TGI (NCI-H23 lung) of the same molecule?
The TGI was 5.11 nM.

What about the GI50 (NCI-H460 lung) of the same molecule?
The GI50 was 8.62 nM.

What about the TGI (NCI-H460 lung) of the same molecule?
Its TGI is 43.6 nM and 40.5 nM.

What about the GI50 (NCI-H522 lung) of the same molecule?
The GI50 was 2.21 nM.

What about the TGI (NCI-H522 lung) of the same molecule?
Its TGI is 5.66 nM.

What about the GI50 (NCI/ADR-RES ovarian) of the same molecule?
Its GI50 is 1970 nM.

And the TGI (NCI/ADR-RES ovarian)?
The TGI was 5900 nM.

What about the GI50 (OVCAR-3 ovarian) of the same molecule?
The GI50 was 4.07 nM.

What about the TGI (OVCAR-3 ovarian) of the same molecule?
Its TGI is 16.8 nM.

And the GI50 (OVCAR-4 ovarian)?
The GI50 was 3.65 nM.

What about the TGI (OVCAR-4 ovarian) of the same molecule?
The TGI was 16.9 nM.

And the GI50 (OVCAR-5 ovarian)?
Its GI50 is 2.89 nM.

And the TGI (OVCAR-5 ovarian)?
The TGI was 11.9 nM.

And the GI50 (OVCAR-8 ovarian)?
Its GI50 is 22.2 nM and 15.7 nM.

What about the TGI (OVCAR-8 ovarian) of the same molecule?
Its TGI is 10200 nM.

What about the GI50 (PC-3 prostate) of the same molecule?
The GI50 was 4.61 nM.

And the TGI (PC-3 prostate)?
Its TGI is 96.4 nM and 59.3 nM.

What about the GI50 (RPMI-8226 leukemia) of the same molecule?
The GI50 was 3.72 nM.

And the GI50 (RXF 393 renal)?
Its GI50 is 2.53 nM.

And the TGI (RXF 393 renal)?
The TGI was 6.28 nM.

What about the GI50 (SF-268 CNS) of the same molecule?
The GI50 was 4.46 nM.

And the TGI (SF-268 CNS)?
The TGI was 46.6 nM.

What about the GI50 (SF-295 CNS) of the same molecule?
Its GI50 is 3.83 nM.

What about the TGI (SF-295 CNS) of the same molecule?
The TGI was 14.5 nM.

And the GI50 (SF-539 CNS)?
Its GI50 is 1.8 nM.

What about the TGI (SF-539 CNS) of the same molecule?
The TGI was 3.47 nM.

What about the GI50 (SK-MEL-5 melanoma) of the same molecule?
Its GI50 is 1.77 nM.

What about the TGI (SK-MEL-5 melanoma) of the same molecule?
Its TGI is 4.27 nM.

What about the GI50 (SK-OV-3 ovarian) of the same molecule?
The GI50 was 4.43 nM.

What about the TGI (SK-OV-3 ovarian) of the same molecule?
The TGI was 23.6 nM and 15.9 nM.

And the GI50 (SN12C renal)?
Its GI50 is 2.15 nM.

And the TGI (SN12C renal)?
The TGI was 5.04 nM and 11.3 nM.

What about the GI50 (SNB-19 CNS) of the same molecule?
Its GI50 is 3.67 nM.

And the GI50 (SR leukemia)?
The GI50 was 3.81 nM.

What about the TGI (SR leukemia) of the same molecule?
The TGI was over 100000 nM.

What about the GI50 (SW-620 colon) of the same molecule?
Its GI50 is 4.09 nM.

What about the TGI (SW-620 colon) of the same molecule?
Its TGI is 42 nM and 25.4 nM.

And the GI50 (T-47D breast)?
Its GI50 is 1.99 nM.

What about the TGI (T-47D breast) of the same molecule?
The TGI was 5.29 nM.

What about the GI50 (TK-10 renal) of the same molecule?
Its GI50 is 41 nM and 37.3 nM.

And the TGI (TK-10 renal)?
Its TGI is 208 nM and 462 nM.

What about the GI50 (U251 CNS) of the same molecule?
The GI50 was 3.92 nM.

What about the TGI (U251 CNS) of the same molecule?
Its TGI is 17.8 nM and 72.9 nM.

And the GI50 (UACC-257 melanoma)?
The GI50 was 3.76 nM.

And the TGI (UACC-257 melanoma)?
The TGI was 289 nM and 1200 nM.

And the GI50 (UACC-62 melanoma)?
The GI50 was 1.77 nM.

And the TGI (UACC-62 melanoma)?
Its TGI is 3.56 nM.

And the GI50 (UO-31 renal)?
Its GI50 is 171 nM and 317 nM.

And the TGI (UO-31 renal)?
The TGI was 466 nM and 1800 nM.
